Assay results reported in patent US20240293394A1, “METHODS FOR TREATING ANTIPSYCHOTIC-INDUCED WEIGHT GAIN” (priority 2010, published 2024).
Read-outs that look alike come from different tables or passages of the source.

What was measured:
[1] = Olanzapine-related changes (body weight, adipose tissue, serum chemistry) in female cynomolgus monkeys; type: in vivo
Procedure: Clinical observations and weight gain were assessed over a 28-day treatment period. […] Beginning two weeks prior to the study, monkeys were given ad libitum access to a highly palatable, high caloric diet. On the day prior to the start of treatment, monkeys were weighed and assigned to groups using a randomized block design based on body weight (BW); average BW across the 3 groups was 3.1+0.08 kg on the day of randomization. Also, baseline whole body CT scans were taken on the day prior to initiation of treatments. […] A second CT scan was conducted on day 29.

[2] = patients; Taylor et al., Acta Psychiatr Scand. 2001; cited from earlier work
[3] = Olanzapine-related weight gain in female rats; type: in vivo
From the text: The rats were assigned to treatment groups using a random block design based on initial body weight.

ghrelin [4] = test: Circulating ghrelin levels in conscious, unrestrained rats; type: in vivo; details: 10 mg/kg PO, two hours post administration
Procedure: To determine whether Compound1 and naltrexone have any effect on circulating levels of ghrelin, conscious, unrestrained rats (low stress model) were administered Compound 1 and nalrextone (10 mg/kg, PO). Blood samples were collected and analyzed by bioanalytical for circulating levels of ghrelin at 0, 15, 30, 60, and 120 minutes most administration.

ghrelin [5] = details: known in literature; cited from earlier work
[6] = co-administration of Compound 1 0.4 mg/kg IM with olanzapine, serum, Day 28
[7] = olanzapine with Compound 1 0.4 mg/kg IM once daily, 28 days
[8] = olanzapine only, compared to the vehicle group

Question: With `NC(=O)c1ccc2c(c1O)[C@]13CCN(CC4CC4)[C@H](C2)[C@]1(O)CCC(=O)C3` [Compound 1] as the compound, how does the “effect on olanzapine-induced elevation in LDL concentrations” value [1, 6] read?
Answer: Its value is “prevented”.

Question: And the “effect on olanzapine-induced elevation in TGs” value [1, 6]?
Answer: The value was “prevented”.

Question: And the “effect on OLZ-induced changes (weight, adipose tissue accretion, TGs and LDLs)” value ([1]; co-administration of Compound 1 with olanzapine, 28 days)?
Answer: Its value is “mitigated”.

Question: What about the “average body weight gain” value [1, 7] of the same compound?
Answer: The value was 0.08 kg.

Question: And the “average body weight gain, % of Day 0 BW” value [1, 7]?
Answer: Its value is 2.6%.

Question: With `O=C1CCc2ccc(OCCCCN3CCN(c4cccc(Cl)c4Cl)CC3)cc2N1` [aripiprazole, 7-[4-[4-(2,3-dichlorophenyl)piperazin-1-yl]butoxy]-3,4-dihydro-1H-quinolin-2-one] as the compound, how does the “weight gain associated with atypical antipsychotic” value (“weight gain associated” below) [2] read?
Answer: Its value is “less”.

Question: What does the source list for `O=C1CC[C@@]2(O)[C@H]3Cc4ccc(O)c5c4[C@@]2(CCN3CC2CC2)[C@H]1O5` [naltrexone]?
Answer: effect on olanzapine-induced weight gain ([3]; 2 mg/kg SC concurrent with afternoon olanzapine (1 mg/kg PO twice daily), 10 days): did not affect olanzapine-induced weight gain; circulating ghrelin levels (ghrelin [4]): significantly greater circulating ghrelin levels than Compound 1

Question: With `Cc1cc2c(s1)Nc1ccccc1N=C2N1CCN(C)CC1` [olanzapine, 2-methyl-4-(4-methyl-1-piperazinyl)-10H-thieno[2,3-b][1,5]benzodiazepine] as the compound, how does the “weight gain (body weight)” value ([3]; olanzapine alone 1 mg/kg PO twice daily, 10 consecutive days, vs vehicle control) read?
Answer: Its value is “greater increases in weight gain”.

Question: What about the “adipose tissue gain (CT scan)” value [1, 8] of the same compound?
Answer: The value was “gained relatively more adipose tissue compared to the vehicle group”.

Question: And the “location of adipose tissue deposition (CT scan)” value [1, 8]?
Answer: Its value is “more abdominal fat accretion”.

Question: And the circulating ghrelin levels (ghrelin [5])?
Answer: Its circulating ghrelin levels is “increases circulating ghrelin levels”.

Question: Which “weight gain associated” value [2] does the source give for `OCCOCCN1CCN(C2=Nc3ccccc3Sc3ccccc32)CC1` [quetiapine, 2-(2-(4-dibenzo[b,f][1,4]thiazepine-11-yl-1-piperazinyl)ethoxy)ethanol] here?
Answer: The value was “greatest”.

Question: Which “weight gain associated” value [2] does the source give for `O=C1Cc2cc(CCN3CCN(c4nsc5ccccc45)CC3)c(Cl)cc2N1` [ziprasidone, 5-[2-[4-(1,2-benzisothiazol-3-yl)-1-piperazinyl]ethyl]-6-chloro-1,3-dihydro-2H-indol-2-one] here?
Answer: The value was “less”.
